This is an account of results in the supplement of paper PMC3493320.

This test deals with NCI-H295R. The test can be described thus: IC50 (antiproliferative, ATP content). Particulars: 48 h. The procedure, abridged:
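Following overnight culture of adrenocortical carcinoma cells (1500 per well) in 1536-well plates with serum-free ITS-supplemented DMEM, library compounds were pin-transferred at 8 final concentrations from 0.6 nM to 46 µM. Incubation lasted 48 h at 37 °C, 5% CO2, and the CellTiter-Glo signal was read after 20 min at room temperature. Data were fitted with a four-parameter logistic model. Each IC50 came from that fit after normalisation to vehicle and positive-control wells, and compounds without a concentration response were reported as above the top dose.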
One may read the IC50 as the point on the concentration scale where inhibition reaches its midpoint. High values mean a need for much substance, low ones inhibition by little substance. On to `Cc1ccc(O)c(-n2nc3ccccc3n2)c1`, for which the IC50 is > 46 µM.
With `COc1cc2nc(N3CCN(C(=O)C4CCCO4)CC3)nc(N)c2cc1OC.Cl` (centres undefined) the figure was > 46 µM.
With `Cl.OC(CCN1CCCCC1)(c1ccccc1)C1CC2C=CC1C2` (centres undefined), the IC50 was > 46 µM.
Consider `COC(=O)CCC[N+](C)(C)C.[Cl-]`, for which the IC50 is > 46 µM.
On to `CC(CN(C)C)CN1c2ccccc2CCc2ccccc21.O=C(O)/C=C\C(=O)O` (centres undefined), for which the half-inhibitory concentration (IC50) is > 46 µM.
For the molecule `COc3ccccc3N2CCN(CCCN\C1=C\C(=O)N(C)C(=O)N1C)CC2`, the IC50 is > 46 µM.
With `CC1(C)OC(=O)NC1=O` the figure was > 46 µM; with `O=C1CCC(=O)N1CO`, > 46 µM.
Regarding `CC(C)NCC(O)COc1ccc(CCOCC2CC2)cc1` (centres undefined), the IC50 was > 46 µM.
With `NCCCNCCSP(=O)(O)O` the figure was > 46 µM; with `CC(C)CN(C[C@@H](O)[C@H](Cc1ccccc1)NC(=O)O[C@H]1CO[C@H]2OCC[C@H]21)S(=O)(=O)c1ccc(N)cc1`, > 46 µM; with `FC(F)OC(F)(F)C(F)Cl` (centres undefined), > 46 µM.
For `Oc1cc(Cl)c(Cl)cc1Cl`, the IC50 is > 46 µM.
Then `O=C1c2ccccc2C(=O)C1c1ccc(Br)cc1`, with > 46 µM.
Turning to `Cl.NNc1nncc2ccccc12`, the IC50 was > 46 µM.
Consider `Cc1ccccc1CNc1ncnc2c1ncn2[C@@H]1O[C@H](CO)[C@@H](O)[C@H]1O`, for which the IC50 is > 46 µM.
For `COc1ccc2cc([C@H](C)C(=O)[O-])ccc2c1.[Na+]`, the concentration for half-maximal inhibition (IC50) is > 46 µM.
With `Cn1nnnc1SCC1=C(C(=O)[O-])N2C(=O)[C@@H](NC(=O)[C@H](O)c3ccccc3)[C@H]2SC1.[Na+]` the figure was > 46 µM; with `Cl.NC1CCN(c2cccc(Cl)n2)CC1`, > 46 µM; with `CCN[C@H]1C[C@H](C)S(=O)(=O)c2sc(S(N)(=O)=O)cc21.Cl`, > 46 µM.
Turning to `CC(CCc1ccccc1)NC(C)C(O)c1ccc(O)cc1` (centres undefined), the IC50 was > 46 µM.
Consider `O=C(O[C@@H]2C[C@H](CC3)[N@@+](C)(C)[C@H]3C2)C(CO)C1=CC=CC=C1.[Br-]` (some centres undefined), for which the IC50 was > 46 µM.
With `O=C(O)/C=C\C(=O)O.O=C(O)/C=C\C(=O)O.c1cc(CN2CCCCC2)cc(OCCCNc2nc3ccccc3s2)c1` the figure was > 46 µM.
For the molecule `CCN(C(C)=O)c1cccc(-c2ccnc3c(C#N)cnn23)c1`, the IC50 was > 46 µM.
With `CC(=O)NC[C@H]1CN(c2ccc(N3CCOCC3)c(F)c2)C(=O)O1` the figure was > 46 µM; with `COc1ccc(C(=O)CCC(=O)O)c2ccccc12`, > 46 µM; with `O=C(O)c1cc(O)c(O)c(O)c1`, > 46 µM.
For `CN(C)[C@@H]1C(O)=C(C(N)=O)C(=O)[C@@]2(O)C(O)=C3C(=O)c4c(O)ccc(Cl)c4[C@@](C)(O)[C@H]3C[C@@H]12.Cl`, the IC50 was > 46 µM.
Then `OCC(O)CN1CCN(c2ccccc2)CC1` (centres undefined), with > 46 µM.
Then `O=C(O)CP(=O)(O)O`, with > 46 µM; and `COC(=O)[C@@H](N)CCCN/C(N)=N/[N+](=O)[O-]`, with > 46 µM.
Then `ClC=C(Cl)Cl`, with > 46 µM; and `Cl.Cl.OCCN1CCN(CC/C=C2\c3ccccc3Sc3ccc(Cl)cc32)CC1`, with > 46 µM.
On to `C#C[C@]1(O)CC[C@H]2[C@@H]3CCC4=CC(=O)CC[C@@H]4[C@H]3CC[C@@]21CC`, for which the IC50 was > 46 µM.
With `Oc1cccc(O)c1O` the figure was > 46 µM; with `COS(=O)(=O)[O-].C[N+]1(C)CCCCC1COC(=O)C(O)(c1ccccc1)c1ccccc1` (centres undefined), > 46 µM.
With `Cc1nc2ccc(CN(C)c3ccc(C(=O)N[C@@H](CCC(=O)O)C(=O)O)s3)cc2c(=O)[nH]1` the figure was > 46 µM; with `Nc1nc(=O)c2c([nH]1)NCC(CNc1ccc(C(=O)N[C@@H](CCC(=O)[O-])C(=O)[O-])cc1)N2C=O.[Ca+2]` (some centres undefined), > 46 µM; with `OC[C@@H](O)[C@@H](O)[C@H](O)[C@H](O)CO`, > 46 µM.
As to `CC(N)CCCC(C)(C)O.Cl` (centres undefined), the IC50 was > 46 µM.
As for `O=c1ccc2cc(O[C@@H]3O[C@H](CO)[C@@H](O)[C@H](O)[C@H]3O)c(O)cc2o1`, the IC50 is > 46 µM.
Then `O=C(NCCCN1CCOCC1)c1ccc(Cl)cc1`, with > 46 µM; and `COc1ccc2c3c1O[C@H]1C[C@@H](O)C=C[C@@]31CCN(C)C2`, with > 46 µM; and `N#CCC(=O)NN`, with > 46 µM.
With `CCCCCCCCOc1ccccc1C(=O)Nc1ccc(C(=O)OCC[N+](C)(CC)CC)cc1.[Br-]` the figure was > 46 µM.
On to `CN1CCN2c3ccccc3Cc3ccccc3C2C1` (centres undefined), for which the IC50 is > 46 µM.
Consider `O=C(O)CCC/C=C\C[C@@H]1[C@@H](/C=C/[C@@H](O)COc2cccc(C(F)(F)F)c2)[C@H](O)C[C@@H]1O`, for which the IC50 is > 46 µM.
With `Oc1ccc(Cl)cc1` the figure was > 46 µM.
`C[N+](C)(C)CCOC(=O)C(O)(c1ccccc1)c1ccccc1.[I-]`: the IC50 was > 46 µM.
`CN(C)C(=O)Oc1cccc([N+](C)(C)C)c1.[Br-]`: the IC50 is > 46 µM.
Take `OC1=CC(\C=C(C#N)/C#N)=CC(O)=C1O`: the IC50 is > 46 µM.
Then `CC(=O)N=c1sc(S(N)(=O)=O)nn1C`, with > 46 µM.
Regarding `Nc1ccn([C@@H]2O[C@H](CO)[C@@H](O)[C@@H]2O)c(=O)n1`, the IC50 was > 46 µM.
Consider `O=C(O)[C@@H]1C[C@H](CP(=O)(O)O)CCN1`, for which the IC50 is > 46 µM.
Then `CON=C(C(=O)N[C@@H]1C(=O)N2C(C(=O)[O-])=C(CSc3nc(C)c(CC(=O)[O-])s3)CS[C@H]12)c1csc(N)n1.[Na+].[Na+]`, with > 46 µM; and `CCCCCCCCCCCCCCCCCC[N+](C)(C)CCC[Si](OC)(OC)OC.[Cl-]`, with > 46 µM; and `CN(CCOc1ccc(NS(C)(=O)=O)cc1)CCc1ccc(NS(C)(=O)=O)cc1`, with > 46 µM.
For `CN1C2=CC(=O)C(=NNC(N)=O)C=C2CC1S(=O)(=O)[O-].[Na+]` (centres undefined), the IC50 is > 46 µM.
In the case of `CCCOC(=O)c1ccccc1`, the IC50 is > 46 µM.
With `FC(F)OC(Cl)C(F)(F)F` (centres undefined) the figure was > 46 µM; with `CN1[C@@H]2CC[C@H]1C[C@@H](OC(c1ccccc1)c1ccccc1)C2`, > 46 µM.
Regarding `CC1(C)S[C@@H]2[C@H](NC(=O)C3(N)CCCCC3)C(=O)N2[C@H]1C(=O)O`, the IC50 is > 46 µM.
Then `O=C3N1/C(=C(\CS[C@@H]1[C@@H]3NC(=O)Cn2cnnn2)CSc4nnc(C)s4)C(O)=O`, with > 46 µM.
For the molecule `c1ccc(C2(N3CCCC3)CCCCC2)cc1`, the IC50 is > 46 µM.
`O=S(=O)([O-])CCCS(=O)(=O)[O-].[Na+].[Na+]`: the IC50 was > 46 µM.
With `O=[C@@](OCC2=CC=CC(OC3=CC=CC=C3)=C2)[C@H]1C(C)(C)C1/C=C(C)/C` (some centres undefined) the figure was > 46 µM; with `CN(C)CC\C2=C\Nc1ccc(cc12)Cn3cncn3`, > 46 µM; with `O=C(O)COc1ccc(CCNS(=O)(=O)c2ccccc2)s1`, > 46 µM.
With `Br.CN1[C@@H]2C[C@@H](OC(=O)[C@H](CO)c3ccccc3)C[C@H]1[C@@H]1O[C@@H]12.O.O.O`, the IC50 is > 46 µM.
For `COc1ccnc(CS(=O)c2nc3cc(OC(F)F)ccc3[nH]2)c1OC` (centres undefined), the IC50 is > 46 µM.
Regarding `C=CC(=O)O`, the IC50 was > 46 µM.
For the molecule `CCOC(=O)CC(SP(=S)(OC)OC)C(=O)OCC` (centres undefined), the IC50 was > 46 µM.
Regarding `Cc1cccc(C(=O)O)c1O`, the IC50 was > 46 µM.
On to `CO[C@@H]1[C@H](OC(=O)/C=C/C=C/C=C/C=C/C(=O)O)CC[C@]2(CO2)[C@H]1[C@@]1(C)O[C@@H]1CC=C(C)C`, for which the IC50 was > 46 µM.
For the molecule `OC[C@H]1O[C@@H](Oc2ccc(O)cc2)[C@H](O)[C@@H](O)[C@@H]1O`, the IC50 is > 46 µM.
Regarding `CCC1(C)CC(=O)NC1=O` (centres undefined), the IC50 was > 46 µM.
Then `N=C(N)N/N=C1/C=C/C(C=C1)=N\NC(N)=S`, with > 46 µM; and `O=NN(CCCl)C(=O)NC1CCCCC1`, with > 46 µM.
Then `CCCCC[C@H](O)/C=C/[C@@H]1[C@H]2C/C(=C/CCCC(=O)[O-])O[C@H]2C[C@H]1O.[Na+]`, with > 46 µM.
Turning to `C[N+]1(CCC(C(N)=O)(c2ccccc2)c2ccccc2)CCCCC1.[Br-]`, the IC50 is > 46 µM.
As to `COC(F)(F)C(Cl)Cl`, the IC50 is > 46 µM.
For the molecule `CN(CCOc1ccc(CC2SC(=O)NC2=O)cc1)c1ccccn1` (centres undefined), the IC50 is > 46 µM.
On to `CC(C)NCC(O)COc1ccc(COCCOC(C)C)cc1.CC(C)NCC(O)COc1ccc(COCCOC(C)C)cc1.O=C(O)/C=C/C(=O)O` (centres undefined), for which the IC50 was > 46 µM.
With `Nc1ccc(C(=O)O)cc1` the figure was > 46 µM; with `CCCC(C)(COC(N)=O)COC(=O)NC1CC1` (centres undefined), > 46 µM.
Then `CCCCCCCCCCOCC(O)CN.Cl` (centres undefined), with > 46 µM.
As to `Nc1nc(F)nc2c1ncn2[C@H]1O[C@@H](CO)[C@H](O)[C@H]1O`, the half-maximal inhibitory concentration (IC50) is > 46 µM.
On to `O.O.O.O.[Na+].[O-]c1ccccc1-c1ccccc1`, for which the IC50 was > 46 µM.
On to `Nc1nc2c(ncn2COCCO)c(=O)[nH]1`, for which the IC50 was > 46 µM.
Then `NC(=O)N[C@@H](CCC(=O)O)C(=O)O`, with > 46 µM; and `COc1ccc(CCN(C)CCCC(C#N)(c2ccc(OC)c(OC)c2)C(C)C)cc1OC` (centres undefined), with > 46 µM.
`O=C(C(CCC)CCC)O[C@@H]1C[C@H](CC2)[N@@+](C)(C)[C@H]2C1.[Br-]`: the IC50 was > 46 µM.
`O=C(N/N=C/c1ccc([N+](=O)[O-])o1)c1cc([N+](=O)[O-])cc([N+](=O)[O-])c1O`: the IC50 is > 46 µM.
With `O=C1CCc2cc(OCCCCc3nnnn3C3CCCCC3)ccc2N1` the figure was > 46 µM.
